Results as given in paper PMC3914206.

Assays:
panel of 442 kinases [1] = biological target: T1, panel of 442 kinases (Homo sapiens, UniProt O14578); type: binding; settings: Compound Concentration 10 µM
T1 construct: purchased KINOMEscan
Description: (§1) We assessed the selectivity of members of this scaffold using the KINOMEscan methodology across a near comprehensive panel of 442 kinases [[18,27]].

panel of 442 kinases [2] = biological target: T2, panel of 442 kinases (Homo sapiens, UniProt P29323); type: binding; settings: Compound Concentration 10 µM
T2 construct: purchased KINOMEscan
T2 sequence (P29323 19-1055): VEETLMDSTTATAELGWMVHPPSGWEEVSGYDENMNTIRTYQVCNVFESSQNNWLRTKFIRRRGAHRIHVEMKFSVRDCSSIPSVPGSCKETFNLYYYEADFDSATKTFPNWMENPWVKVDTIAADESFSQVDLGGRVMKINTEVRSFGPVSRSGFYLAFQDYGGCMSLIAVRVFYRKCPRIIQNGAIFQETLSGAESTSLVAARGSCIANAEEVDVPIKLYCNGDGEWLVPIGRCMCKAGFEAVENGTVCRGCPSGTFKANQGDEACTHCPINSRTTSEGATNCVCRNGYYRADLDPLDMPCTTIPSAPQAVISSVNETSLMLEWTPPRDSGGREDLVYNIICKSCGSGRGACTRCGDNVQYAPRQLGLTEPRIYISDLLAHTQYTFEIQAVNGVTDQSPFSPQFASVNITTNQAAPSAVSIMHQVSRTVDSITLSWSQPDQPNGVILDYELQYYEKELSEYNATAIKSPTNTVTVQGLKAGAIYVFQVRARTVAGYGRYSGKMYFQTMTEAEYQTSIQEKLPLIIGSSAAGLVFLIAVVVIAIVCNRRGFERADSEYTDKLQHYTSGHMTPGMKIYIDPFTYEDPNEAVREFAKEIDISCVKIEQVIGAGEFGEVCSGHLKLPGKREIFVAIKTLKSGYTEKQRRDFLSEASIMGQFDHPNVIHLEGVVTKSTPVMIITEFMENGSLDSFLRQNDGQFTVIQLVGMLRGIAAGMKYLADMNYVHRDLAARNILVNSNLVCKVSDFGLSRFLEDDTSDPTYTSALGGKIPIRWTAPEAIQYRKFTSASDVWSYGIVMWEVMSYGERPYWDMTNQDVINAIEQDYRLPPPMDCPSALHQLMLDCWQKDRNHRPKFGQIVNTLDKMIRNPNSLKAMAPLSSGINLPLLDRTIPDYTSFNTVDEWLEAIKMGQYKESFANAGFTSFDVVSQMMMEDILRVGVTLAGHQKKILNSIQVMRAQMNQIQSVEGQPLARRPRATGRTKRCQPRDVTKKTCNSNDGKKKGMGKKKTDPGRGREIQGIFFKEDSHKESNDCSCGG
Description: as §1

T1 sequence (O14578 whole entry): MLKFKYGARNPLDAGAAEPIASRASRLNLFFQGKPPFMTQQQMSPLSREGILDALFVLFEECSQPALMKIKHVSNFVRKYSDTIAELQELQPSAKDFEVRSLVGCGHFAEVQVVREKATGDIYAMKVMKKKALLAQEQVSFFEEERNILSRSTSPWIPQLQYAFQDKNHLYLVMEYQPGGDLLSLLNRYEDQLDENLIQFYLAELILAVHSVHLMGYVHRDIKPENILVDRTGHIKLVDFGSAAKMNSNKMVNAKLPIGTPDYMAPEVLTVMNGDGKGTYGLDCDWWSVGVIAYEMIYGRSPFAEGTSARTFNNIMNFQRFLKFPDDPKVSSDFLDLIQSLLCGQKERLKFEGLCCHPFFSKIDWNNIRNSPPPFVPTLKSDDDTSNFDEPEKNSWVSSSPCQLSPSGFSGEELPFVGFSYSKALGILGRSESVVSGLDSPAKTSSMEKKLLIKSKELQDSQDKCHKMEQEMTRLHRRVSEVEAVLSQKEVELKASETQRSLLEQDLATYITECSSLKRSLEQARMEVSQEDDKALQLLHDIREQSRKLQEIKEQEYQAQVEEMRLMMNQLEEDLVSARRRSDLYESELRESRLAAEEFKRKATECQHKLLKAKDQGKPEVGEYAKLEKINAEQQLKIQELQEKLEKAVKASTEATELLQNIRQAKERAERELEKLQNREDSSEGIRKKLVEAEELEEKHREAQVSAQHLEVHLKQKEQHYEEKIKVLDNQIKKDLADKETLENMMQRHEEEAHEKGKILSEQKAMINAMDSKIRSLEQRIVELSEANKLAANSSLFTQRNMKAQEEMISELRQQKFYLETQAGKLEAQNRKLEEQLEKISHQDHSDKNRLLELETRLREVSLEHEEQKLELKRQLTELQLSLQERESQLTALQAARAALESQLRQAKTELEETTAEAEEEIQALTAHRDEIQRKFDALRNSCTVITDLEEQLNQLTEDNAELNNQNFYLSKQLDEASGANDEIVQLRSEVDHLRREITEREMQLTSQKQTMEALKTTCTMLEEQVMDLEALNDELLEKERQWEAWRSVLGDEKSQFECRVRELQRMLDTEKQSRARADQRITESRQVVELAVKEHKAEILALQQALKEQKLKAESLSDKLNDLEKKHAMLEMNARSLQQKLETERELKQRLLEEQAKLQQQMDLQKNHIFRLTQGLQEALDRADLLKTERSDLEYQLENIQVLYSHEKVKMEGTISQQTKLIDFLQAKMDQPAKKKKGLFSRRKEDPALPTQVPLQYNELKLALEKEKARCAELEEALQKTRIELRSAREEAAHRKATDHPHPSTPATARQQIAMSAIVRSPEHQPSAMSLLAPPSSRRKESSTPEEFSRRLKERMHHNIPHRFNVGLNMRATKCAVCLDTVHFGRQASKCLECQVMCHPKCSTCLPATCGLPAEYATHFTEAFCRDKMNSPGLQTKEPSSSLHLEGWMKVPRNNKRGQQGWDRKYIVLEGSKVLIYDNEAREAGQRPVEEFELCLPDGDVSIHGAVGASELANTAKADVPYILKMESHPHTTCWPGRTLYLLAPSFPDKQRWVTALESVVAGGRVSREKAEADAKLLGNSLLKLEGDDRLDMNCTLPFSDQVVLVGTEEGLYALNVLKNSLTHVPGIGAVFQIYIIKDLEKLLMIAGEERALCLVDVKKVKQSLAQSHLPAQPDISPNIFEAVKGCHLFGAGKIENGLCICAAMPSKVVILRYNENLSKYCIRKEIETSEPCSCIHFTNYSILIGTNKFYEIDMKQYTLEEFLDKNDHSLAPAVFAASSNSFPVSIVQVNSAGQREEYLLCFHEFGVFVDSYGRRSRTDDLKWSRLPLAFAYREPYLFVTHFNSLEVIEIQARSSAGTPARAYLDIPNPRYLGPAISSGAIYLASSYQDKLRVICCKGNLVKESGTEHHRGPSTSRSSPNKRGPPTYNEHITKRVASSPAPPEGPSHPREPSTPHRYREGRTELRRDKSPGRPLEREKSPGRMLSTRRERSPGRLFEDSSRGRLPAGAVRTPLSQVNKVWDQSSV

Compound | KINOMEscan: CIT (panel of 442 kinases [1]) | KINOMEscan: EPHB2 (panel of 442 kinases [2])
COc1cc(C(=O)N2CCC(N3CCN(C)CC3)CC2)ccc1Nc1ncc2c(n1)N(C1CCCC1)c1ccccc1C(=O)N2C [Compound 25, 11-cyclopentyl-2-((2-methoxy-4-(4-(4-methylpiperazin-1-yl)piperidine-1-carbonyl)phenyl)amino)-5-methyl-5H-benzo[e]pyrimido[5,4-b][1,4]diazepin-6(11H)-one] | 66 | 86
CCOc1cc(C(=O)N2CCC(N3CCN(C)CC3)CC2)ccc1Nc1ncc2c(n1)N(C1CCCC1)c1ccccc1C(=O)N2C [Compound 26] | 98 | 100
COc1cc(C(=O)N2CCC(N3CCN(C)CC3)CC2)ccc1Nc1ncc2c(n1)N1CCc3cccc(c31)C(=O)N2C [Compound 24] | 1.5 | 
COc1cc(C(=O)N2CCC(N3CCN(C)CC3)CC2)ccc1Nc1ncc2c(n1)N(C)c1ccccc1C(=O)N2C [15 (LRRK2-IN-1)] | 99 | 100
